*1 amine or outer side, *2 acyl side, *3 side chain or, on linkers, in order; H or OH if unused. Where a SMILES comes first, the peptide text is derived from it. [ ]: non-standard residue; d: D form. The star is where a group is joined. N(CH2CH2CO)Gly = O=C(CN(CCC(=O)[*:3])[*:1])[*:2]; NMe2Val = CC(C)[C@@H](C(=O)*)N(C)C; NHhexadecyl = CCCCCCCCCCCCCCCCN*; X1 = O=C(CN(Cc1cncs1)[*:1])[*:2]; NFurfurylGly = O=C(O)CNCc1ccco1; NMe(benzyl) = CN(Cc1ccccc1)*; NMeV = CN[C@H](C(=O)O)C(C)C; X2 = O=C(NCCCCN*)OCc1ccccc1; Nphe = O=C(O)CNCc1ccccc1; NHcHex = C1CCC(N*)CC1; NHBn = c1ccc(CN*)cc1; NHHex = CCCCCCN*; NHBu = CCCCN*

The values below come from article PMC12503912 (Chemmedchem, 2025).

In one data set the test system is MDA-MB-468 cells. Conditions: 48 h. As to the method: (§1) The anticancer activity of the dolastatin 15 analogs 5a‐i was tested in comparison with cemadotin and the N‐methylated cemadotin derivative 5j against three human cancer cell lines, namely prostate adenocarcinoma PC‐3 cells, colorectal carcinoma HCT‐116 cells, and triple‐negative breast cancer MDA‐MB‐468 cells. In vitro cell viability and cytotoxicity assays were conducted and IC50 curves, and values were determined using the resazurin assay and fluorometric read‐out after 48 h cells’ treatment with the compounds in concentrations covering the micro‐ and nanomolar range (Figure S83, Supporting Information, SI).
(§2) Material and methods for cell-based assays
(§3) Human cell culture materials and cultivation methodology
(§4) The in vitro cell viability and cytotoxicity assays were performed with the human prostate cancer cell line PC-3, the human colorectal cancer cell line HCT-116 and the human triple-negative breast cancer cell line MDA-MB-468; the fluorescence microscopic inspections just with PC-3 cells. The cell lines were obtained from DSMZ (Braunschweig, Germany) and ATCC (Manassas, VA, USA) and cultivated in their specific growth medium. PC-3 cells were cultivated in RPMI 1640 supplemented with 1% (v/v) glutamine, and 10% (v/v) he at-inactivated fetal calf serum (FCS); HCT-116 was cultured in McCoy’s 5a Modified Medium supplemented with 10% (v/v) heat-inactivated FCS; and for MDA-MB-468, DMEM high glucose (4.5 g/L) supplemented with 10% (v/v) heat-inactivated FCS was used.
(§5) All the basal culture media and supplements, like glutamine and FCS, PBS and 0.05% trypsin-EDTA for cell detachment were purchased from Capricorn Scientific GmbH (Ebsdorfergrund, Germany). Cell culture plastics were used from TPP (Trasadingen, Switzerland), Greiner Bio-One (Frickenhausen, Germany) and Sarstedt (Nürnbrecht, Germany). Digitonin was purchased from Riedel De Haën (Seelze, Germany) and DMSO from Duchefa Biochemie (Haarlem, The Netherlands). Resazurin was used from Sigma-Aldrich Chemie GmbH (Taufkirchen, Germany). The tubulin-specific dye reagent SiR-tubulin kit (SC002) and verapamil were purchased from Spirochrome AG (Stein am Rhein, Switzerland), the nuclei stain H33342 was from Thermo Fisher Scientific (Waltham, MA, USA).
(§6) Cultivation was routinely done in T-75 flasks in a humidified atmosphere with 5% CO2 at 37 °C until subconfluency (~ 70-80%) was reached, and the cells were ready for subsequent sub-culturing or assay usage. For that, the adherent cells were rinsed with PBS and detached with trypsin/EDTA (0.05% in PBS) prior to cell passaging and seeding.
(§7) Cell viability assay - methodology
(§8) The impacts of the newly synthesized dolastatin derivatives analogs on the viability and proliferation of the three human cancer cell lines were investigated by performing fluorometric resazurin-based cell viability assays, following a protocol well established in our lab.[3,4] In 3 R. Kufka, R. Rennert, G. N. Kaluđerović, L. Weber, W. Richter, L. A. Wessjohann, Beilstein J. Org. Chem.
(§9) 4 Y. T. H. Lam, J. Hoppe, Q. N. Dang; A. Porzel, A. Soboleva, W. Brandt, R. Rennert, H. Hussain, M. D. Davari, […]
(§10) brief, the cells were seeded in low densities in 96-well plates (PC-3: 3.000 cells/well; HCT-116: 5.000 cells/well; MDA-MB-468: 10.000 cells/well) yielding a seeding confluency of ~ 10 – 20%, and were allowed to adhere overnight. Subsequently, the cells were treated for 48 h with dilutions series (25.6 pM – 10 µM in 5-fold dilutions) of the test compounds (1 mM DMSO stocks). For control measures, cells were treated in parallel with 1% DMSO (negative control, representing the final DMSO content of the highest concentrated sample point, for data normalization set to 100% cell viability) and 100 µM digitonin (positive control, for data normalization set to 0% cell viability). After finalization of the 48 h incubation, the incubation media were discarded, and cells were rinsed once with PBS. Resazurin solution in basal medium

For a further data set, the system named is HCT-116 cells. Conditions: 48 h. As to the method: as §1, §2, §3, §4, §5, §6, §7, §8, §9, §10
A further data set deals with PC-3 cells. The following applies: 48 h. On the procedure:
as §1, §2, §3, §4, §5, §6, §7, §8, §9, §10

For data set [1], the system named is microtubule network in PC-3 cells.
Data set [2] deals with PC-3, HCT-116 and MDA-MB-468 cells. Conditions: all cancer cells tested; resazurin, 48 h (Figure S84). On the procedure: as §10

`CCCCNC(=O)CN(Cc1ccccc1)C(=O)[C@@H]1CCCN1C(=O)[C@@H]1CCCN1C(=O)[C@H](C(C)C)N(C)C(=O)[C@@H](NC(=O)[C@H](C(C)C)N(C)C)C(C)C` [Peptide 5a] (NMe2Val-V[NMeV]PP[Nphe]-NHBu): the half-maximal inhibitory concentration (IC50) in the data set with MDA-MB-468 cells was 820 nM; with HCT-116 cells it was 2200 nM; in the data set on PC-3 cells it was 1500 nM. Besides, the “effect on microtubule structure” value in data set [1] is “acts in the initial phase of microtubule network disruption”.
With `CCCCCCNC(=O)CN(Cc1ccccc1)C(=O)[C@@H]1CCCN1C(=O)[C@@H]1CCCN1C(=O)[C@H](C(C)C)N(C)C(=O)[C@@H](NC(=O)[C@H](C(C)C)N(C)C)C(C)C` [Peptide 5b] (NMe2Val-V[NMeV]PP[Nphe]-NHHex), the IC50 in the data set on MDA-MB-468 cells was 2100 nM; in the data set with HCT-116 cells, 7200 nM; in the data set with PC-3 cells, approximately 5000 nM.
In the case of `CC(C)[C@H](NC(=O)[C@H](C(C)C)N(C)C)C(=O)N(C)[C@H](C(=O)N1CCC[C@H]1C(=O)N1CCC[C@H]1C(=O)N(CC(=O)NCc1ccccc1)Cc1ccccc1)C(C)C` [Peptide 5c] (NMe2Val-V[NMeV]PP[Nphe]-NHBn), the IC50 worked out at 1100 nM with MDA-MB-468 cells, 2300 nM in the data set with HCT-116 cells and 1900 nM in the data set on PC-3 cells.
The like results for `CC(C)[C@H](NC(=O)[C@H](C(C)C)N(C)C)C(=O)N(C)[C@H](C(=O)N1CCC[C@H]1C(=O)N1CCC[C@H]1C(=O)N(CC(=O)NC1CCCCC1)Cc1ccccc1)C(C)C` [Peptide 5d] (NMe2Val-V[NMeV]PP[Nphe]-NHcHex) were, in that order, 1400 nM, 1900 nM and 1200 nM.
For the compound `CC(C)[C@H](NC(=O)[C@H](C(C)C)N(C)C)C(=O)N(C)[C@H](C(=O)N1CCC[C@H]1C(=O)N1CCC[C@H]1C(=O)N(CC(=O)NCCCCNC(=O)OCc1ccccc1)Cc1ccccc1)C(C)C` [Peptide 5e] (NMe2Val-V[NMeV]PP[Nphe]-X2), the IC50 in the data set with MDA-MB-468 cells was found to be 1200 nM; in the data set on HCT-116 cells it was 4300 nM; in the data set on PC-3 cells, 1600 nM.
On to `CCCCCCCCCCCCCCCCNC(=O)CN(Cc1ccccc1)C(=O)[C@@H]1CCCN1C(=O)[C@@H]1CCCN1C(=O)[C@H](C(C)C)N(C)C(=O)[C@@H](NC(=O)[C@H](C(C)C)N(C)C)C(C)C` [Peptide 5f] (NMe2Val-V[NMeV]PP[Nphe]-NHhexadecyl), for which the IC50 came to 2100 nM in the data set with MDA-MB-468 cells, 2700 nM in the data set on HCT-116 cells and 2100 nM in the data set on PC-3 cells.
`CCCCNC(=O)CN(Cc1cncs1)C(=O)[C@@H]1CCCN1C(=O)[C@@H]1CCCN1C(=O)[C@H](C(C)C)N(C)C(=O)[C@@H](NC(=O)[C@H](C(C)C)N(C)C)C(C)C` [Peptide 5h] (NMe2Val-V[NMeV]PP[X1]-NHBu): the figures for the IC50 in the data set on MDA-MB-468 cells, in the data set with HCT-116 cells and in the data set on PC-3 cells were 24 nM, 50 nM and 30 nM, respectively. The “cell and nuclear morphology after treatment” value in data set [1] is “enlarged and showed strongly fragmented nuclei”. Moreover, the “effect on microtubule structure” value in data set [1] is listed as “microtubule networks appear to be stabilized rather than destabilized”.
On to `CCCCNC(=O)CN(Cc1ccco1)C(=O)[C@@H]1CCCN1C(=O)[C@@H]1CCCN1C(=O)[C@H](C(C)C)N(C)C(=O)[C@@H](NC(=O)[C@H](C(C)C)N(C)C)C(C)C` [Peptide 5i] (NMe2Val-V[NMeV]PP[NFurfurylGly]-NHBu), for which the figures for the IC50 in the data set with MDA-MB-468 cells, with HCT-116 cells and in the data set on PC-3 cells were 1200 nM, more than 10000 nM and 3700 nM, respectively.
As for `CC(C)[C@H](NC(=O)[C@H](C(C)C)N(C)C)C(=O)N(C)[C@H](C(=O)N1CCC[C@H]1C(=O)N1CCC[C@H]1C(=O)N(C)Cc1ccccc1)C(C)C` [Peptide 5j, N‐Methyl‐cemadotin] (NMe2Val-V[NMeV]PP-{NMe(benzyl)}), the concentration for half-maximal inhibition (IC50) in the data set with MDA-MB-468 cells, with HCT-116 cells and in the data set on PC-3 cells was more than 10000 nM throughout.
On to `COc1ccc(CNC(=O)[C@H](CC(C)C)N(CC(=O)NCc2ccccc2)C(=O)[C@@H]2CCCN2C(=O)[C@H](C(C)C)N(C)C(=O)[C@@H](NC(=O)[C@H](C(C)C)N(C)C)C(C)C)cc1` [Peptide 11a], for which the IC50 in the data set on MDA-MB-468 cells, in the data set on HCT-116 cells and in the data set on PC-3 cells was more than 10000 nM throughout.
On to `CC(C)C[C@@H](C(=O)NCc1ccccc1)N(CC(=O)NC(C)(C)C)C(=O)[C@@H]1CCCN1C(=O)[C@H](C(C)C)N(C)C(=O)[C@@H](NC(=O)[C@H](C(C)C)N(C)C)C(C)C` [Peptide 11b], for which the concentration for half-maximal inhibition (IC50) in the data set on MDA-MB-468 cells, in the data set on HCT-116 cells and with PC-3 cells was more than 10000 nM each time.
In the case of `CCCCNC(=O)CN(C(=O)[C@@H]1CCCN1C(=O)[C@H](C(C)C)N(C)C(=O)[C@@H](NC(=O)[C@H](C(C)C)N(C)C)C(C)C)[C@@H](CC(C)C)C(=O)NCc1ccccc1` [Peptide 11c], the IC50 in the data set with MDA-MB-468 cells is approximately 5000 nM; in the data set with HCT-116 cells, 7900 nM; with PC-3 cells, more than 10000 nM.
As for `CC(C)[C@H](NC(=O)[C@H](C(C)C)N(C)C)C(=O)N(C)[C@H](C(=O)N1CCC[C@H]1C(=O)N(CC(=O)NC1CCCCC1)[C@@H](Cc1ccccc1)C(=O)NCc1ccccc1)C(C)C` [Peptide 11d], the IC50 in the data set with MDA-MB-468 cells, in the data set on HCT-116 cells and with PC-3 cells was more than 10000 nM each time.
Turning to `CC(C)[C@H](NC(=O)[C@H](C(C)C)N(C)C)C(=O)N(C)[C@H](C(=O)N1CCC[C@H]1C(=O)N(CC(=O)NC1CCCCC1)[C@@H](Cc1ccccc1)C(=O)NCc1ccco1)C(C)C` [Peptide 11e], the half-maximal inhibitory concentration (IC50) was more than 10000 nM with MDA-MB-468 cells, more than 10000 nM with HCT-116 cells and 9300 nM in the data set with PC-3 cells.
Consider `CC(C)[C@H](NC(=O)[C@H](C(C)C)N(C)C)C(=O)N(C)[C@H](C(=O)N1CCC[C@H]1C(=O)N(CC(=O)NCc1ccccc1)[C@@H](Cc1ccccc1)C(=O)NCc1ccco1)C(C)C` [Peptide 11f], for which the IC50 in the data set with MDA-MB-468 cells, in the data set with HCT-116 cells and with PC-3 cells was more than 10000 nM throughout.
As to `CCCCNC(=O)CN(C(=O)[C@@H]1CCCN1C(=O)[C@H](C(C)C)N(C)C(=O)[C@@H](NC(=O)[C@H](C(C)C)N(C)C)C(C)C)[C@@H](C)C(=O)NCc1ccc(OC)cc1` [Peptide 11g], the half-inhibitory concentration (IC50) in the data set with MDA-MB-468 cells, with HCT-116 cells and in the data set on PC-3 cells was more than 10000 nM each time.
In the data set with PC-3 cells, `CCCCCCNC(=O)CN(C(=O)[C@@H]1CCCN1C(=O)[C@H](C(C)C)N(C)C(=O)[C@@H](NC(=O)[C@H](C(C)C)N(C)C)C(C)C)[C@@H](C)C(=O)NCc1ccccc1` [Peptide 11h] returned an IC50 of more than 10000 nM.
For the compound `CCCCCCCCCCCCCCCCNC(=O)CCN(CC(=O)NC1CCCCC1)C(=O)[C@@H]1CCCN1C(=O)[C@H](C(C)C)N(C)C(=O)[C@@H](NC(=O)[C@H](C(C)C)N(C)C)C(C)C` [Peptide 11i] (NMe2Val-V[NMeV]P[N(CH2CH2CO)Gly](NHhexadecyl)-NHcHex), the cytotoxic profile result in data set [2] is “inducing the death of all cancer cells tested”. The figures for the IC50 in the data set on MDA-MB-468 cells, in the data set on HCT-116 cells and in the data set with PC-3 cells were 3400 nM, 6400 nM and 2300 nM, respectively.
Consider `CC(C)[C@H](NC(=O)[C@H](C(C)C)N(C)C)C(=O)N(C)[C@H](C(=O)N1CCC[C@H]1C(=O)N1CCC[C@H]1C(=O)NCc1ccccc1)C(C)C` [cemadotin, reference compound] (NMe2Val-V[NMeV]PP-NHBn), for which the IC50 with MDA-MB-468 cells amounted to 2.5 nM; in the data set on HCT-116 cells, 1 nM; in the data set with PC-3 cells it was 1.3 nM.
